Results taken from patent publication US11147798B2, “Use of carbamate compound for prevention, alleviation, or treatment of demyelinating disease” (SK BIOPHARMACEUTICALS CO., LTD., priority 2016, dated 2021).
Values joined by “and” are separate entries in the source; they are usually repeats but may differ in a detail not shown here. Identical values can stand only once.

Tests used:
[1] = system: Experimental Autoimmune Encephalomyelitis (EAE) model; experiment: Systemic motor symptom alleviation (EAE clinical score) in an Experimental Autoimmune Encephalomyelitis (EAE) model; format: in vivo, male C57BL/6 mice; settings: for EAE clinical score: mean±SEM
Method: For this experiment, male C57BL/6 mice were purchased from Orient Bio, Inc. of Korea. The mice were placed in a wire mesh cage under conditions of ambient temperature of 20 to 24° C., relative humidity of 55 to 75%, an automatically controlled light-and-darkness cycle of 12 hours and free access to feed (purchased from Agri Brands Purina Korea, Inc.) and water. The mice were housed and maintained in accordance with the Laboratory Animal Care Standards of the Institutional Animal Care and Use Committee (IACUC). After about one week of stabilization, mice weighing 18 to 23 g were used in the experiment.
To 100 mg of Mycobacterium tuberculosis H37RA (killed and desiccated; Difco, 231141, USA) which had been well triturated in mortar, was mixed 10 ml of Incomplete Freund's adjuvant (IFA; Difco, 263910, USA) to prepare 10 mg/ml of Complete Freund's adjuvant (CFA) storage solution, followed by refrigeration at 4° C. Myelin oligodendrocyte glycoprotein (MOG35-55; Peptron, Korea) was diluted with PBS (phosphate-buffered saline; Gibco, 10010, USA) to a final concentration of 2 mg/ml and stored at −20° C. (MOG35-55 storage solution).
50 μg of PTX (pertussis toxin, PTX; Sigma, P7208, USA) was dissolved in 500 μl of PBS to prepare 100 μg/ml of pertussis toxin (PTX) storage solution, followed by […] at 4° C. In the experiment, the PTX storage solution was diluted 50 times with PBS and used.
On the first day of the experiment (Day-1), the EAE-inducing sample solution was administered to mice by subcutaneous injection at 200 μl per mouse. On the same day (Day-1) and two days later (Day-3), 200 μl of PTX solution was intraperitoneally administered to mice twice.
The EAE clinical score is as follows.
All data were expressed as mean±SEM. The EAE clinical scores in the group treated with the test compound were compared to those in the negative control vehicle group by date. Statistical analysis was performed using GraphPad Prism (ver. 4.0) program, and the differences between the two groups were analyzed by Student's t-test.

[2] = system: Experimental Autoimmune Encephalomyelitis (EAE) model; experiment: Pattern retinal conduction (pERG) amplitude in the EAE model; format: in vivo, female C57BL/6 mice; settings: for Pattern retinal conduction amplitude (pERG amplitude), Mean ± SEM: measured 28 days after induction
Method: (§1) For this experiment, female C57BL/6 mice were purchased from Janvier Labs of France and were maintained under conditions of temperature (22±1° C.), a light-and-darkness cycle of 12 hours and free access to water and food according to the protocol approved and investigated by the Animal Experiment Committee of Finland. All animals were kept isolated for a week after purchase and had time to adapt to the kennel. 11-week-old animals were used in the experiment. According to the criteria of the Animal Experiment Committee of Finland, in the case of a weight loss of 20% or more compared to the starting point, a degree of disease progression (clinical score) of 4 or more, or a failure in the righting reflex test in clinical score of 3, the experiment was stopped and animals were sacrificed for humanitarian purposes.
(§2) To induce EAE, an inoculum was purchased from Hooke Laboratories of the United States: the inoculum contains 100 μg of MOG35-55 peptide and 200 μg of heat-inactivated Mycobacterium tuberculosis, both dissolved in 100 μl of mineral oil. 100 μl of the inoculum was injected subcutaneously into both high and low parts of the back of mice. 100 μl pertussis toxin was injected into the peritoneum of the mice twice, two hours after inoculation and after 24 hours.
The test compound was dissolved in distilled water containing 30% polyethylene glycol 400 (PEG 400) and treated with an ultrasonic sonicator for 30 minutes. […]
Pattern retinal conduction was measured two days before and 28 days after EAE induction. […] After performing the test, the results were analyzed using Matlab software (MathWorks, Natick, Mass.).
(§3) Quantitative data were graphed (plotted) and analyzed using Prism software version 7 (GraphPad Software Inc. La Jolla, Calif.), the data were expressed as mean±standard deviation or standard error of mean. Comparisons with the vehicle group were analyzed using a t-test, and when the significance (p value) was less than 0.05, it was judged as a statistically significant difference.

retinal ganglion cells = experiment: Number of retinal ganglion cells per unit area in retinal whole mounts (Brn3a, RBPMS staining) in the EAE model; format: in vivo, female C57BL/6 mice
Method: as §1, §2
The test compound was dissolved in distilled water containing 30% polyethylene glycol 400 (PEG 400) and treated with an ultrasonic sonicator for 30 minutes. The dissolved compound (20 mg/kg or 30 mg/kg) or vehicle was injected into the peritoneum once daily from the 12th day after EAE induction.
When the experiment was terminated or when the time of sacrifice for humanitarian purposes was reached, the mice were sacrificed by cardiac perfusion using a tissue fixative, and the eye and optic nerve were removed for further analysis.
The retinal whole mount samples were extracted from both eyes and stained with antibodies of RBPMS (RNA binding protein with multiple splicing) and Brn3a (brain-specific homeobox/POU domain protein 3A) which are retinal ganglion cell markers, followed by analyzation in a stereological manner (Stereo Investigator, MicroBrightfield, VT, USA).
as §3

Work on NC(=O)O[C@@H](Cn1ncnn1)c1ccccc1Cl [Test compound] yielded an EAE clinical score ([1]; Day-1~Day-9 (before dosing)) of 0.0 ± 0.0, an EAE clinical score ([1]; Day-10 (before dosing)) of 0.5 ± 0.8 and an EAE clinical score ([1]; Day-11, 10 ml/kg orally once a day from Day-11) of 0.8 ± 1.0. The EAE clinical score ([1]; Day-12, 10 ml/kg orally once a day from Day-11) was 1.2 ± 1.1, the EAE clinical score ([1]; Day-13, 10 ml/kg orally once a day from Day-11) was 1.3 ± 0.7 and the EAE clinical score ([1]; Day-14, 10 ml/kg orally once a day from Day-11) was 2.0 ± 0.6. For the same compound, the EAE clinical score ([1]; Day-15, 10 ml/kg orally once a day from Day-11) was 1.9 ± 0.5, the EAE clinical score ([1]; Day-16, 10 ml/kg orally once a day from Day-11) was 1.9 ± 0.6 and the EAE clinical score ([1]; Day-17, 10 ml/kg orally once a day from Day-11) was 2.1 ± 0.6. The EAE clinical score ([1]; Day-17, 10 ml/kg orally once a day from Day-11, listed as test compound) was 2.1±0.6, the EAE clinical score ([1]; Day-18, 10 ml/kg orally once a day from Day-11) was 1.8 ± 0.5 and the EAE clinical score ([1]; Day-19, 10 ml/kg orally once a day from Day-11, p < 0.05 vs. vehicle) was 1.7 ± 0.6. The “Effect on EAE clinical symptoms compared to the vehicle group” value ([1]; Day-19 to Day-22, orally once a day from Day-11) was “significant inhibition of EAE clinical symptoms”, the EAE clinical score ([1]; Day-20, 10 ml/kg orally once a day from Day-11, p < 0.05 vs. vehicle) was 1.4 ± 0.5 and the EAE clinical score ([1]; Day-21, 10 ml/kg orally once a day from Day-11, p < 0.01 vs. vehicle) was 1.3 ± 0.4. For the same compound, the EAE clinical score ([1]; Day-22, 10 ml/kg orally once a day from Day-11, p < 0.01 vs. vehicle) was 1.1 ± 0.5, the “Pattern retinal conduction amplitude (pERG amplitude), Mean ± SEM” value ([2]; 20 mg/kg i.p. once daily from 12th day after EAE induction) was 7.803 and the “Pattern retinal conduction amplitude compared to the baseline” value ([2]; 20 mg/kg or 30 mg/kg, baseline measured two days before EAE induction) was “no significant difference”. The “Pattern retinal conduction amplitude (pERG amplitude), Mean ± SEM” value ([2]; 30 mg/kg i.p. once daily from 12th day after EAE induction) was 7.378, the “Number of retinal ganglion cells per unit area, Brn3a (individual values)” value (retinal ganglion cells; 20 mg/kg i.p. once daily from 12th day after EAE induction, Brn3a marker) was 2675 and 1751 and 1443 and 2139 and 720 and 2221 and 1859 and 2489 and 1674 and 2035 and 2328 and 1389 and 1919 and the “Number of retinal ganglion cells per unit area, Brn3a, Mean ± SEM” value (retinal ganglion cells; 20 mg/kg i.p. once daily from 12th day after EAE induction, Brn3a marker, **p < 0.01 vs. vehicle) was 1895. For the same compound, the “Number of retinal ganglion cells per unit area, RBPMS (individual values)” value (retinal ganglion cells; 20 mg/kg i.p. once daily from 12th day after EAE induction, RBPMS marker) was 3005 and 2251 and 1778 and 2976 and 1781 and 2297 and 2479.9735 and 2722 and 2362 and 2485.7761 and 2784.6808 and 2292 and 2567, the “Number of retinal ganglion cells per unit area, RBPMS, Mean ± SEM” value (retinal ganglion cells; 20 mg/kg i.p. once daily from 12th day after EAE induction, RBPMS marker, **p < 0.01 vs. vehicle) was 2445 and the “Number of retinal ganglion cells per unit area compared to the vehicle group” value (retinal ganglion cells; 20 mg/kg, EAE-induced animals) was “larger number of retinal ganglion cells per unit area”.
